Source: patent US20060275835A1, “Methods for identifying cell surface receptor protein modulators” (priority 2003, published 2006)

Experiments:
Type in all cases: cell-based
[1] = system: CHONFAT cells; test: β-lactamase reporter gene assay in non-transfected CHONFAT cells; conditions: 200 nM thapsigargin; maximal fluorescence
Excerpt: (§1) Aurora transcription based reporter cell lines were used to develop reporter gene assays for the mGluRs. The cell line, CHONFAT-β-lactamase, reports signaling through Gq-coupled receptors via an increase in intracellular calcium. The β-lactamase gene is under the transcriptional control of the nuclear factor of activated T-cells (N-FAT) promoter (reporting increased intracellular calcium). A second cell line Gqi5CHONFAT was utilized for Gi coupled mGluRs. This cell line contains a promiscuous G-protein that promotes coupling to a Gq signal transduction cascade. […] The production of β-lactamase resulting from the downstream signaling events of receptor activation is detected by loading cells with a fluorescent dye, CCF2-AM, a substrate cleavable by the β-lactamase enzyme. In its cleaved state, the substrate will fluoresce blue (EM460) when stimulated with UV light (395 nm). Noncleaved, the intact dye fluoresces green (EM530) (Science 1998, 279:84-88). The ratio of blue to green cells (Em460/530) is determined as a measure of signal transduction, with cells that have transduced a signal being blue and those that have not green. […]

[2] = target: T1, mGluR5 (Homo sapiens, UniProt P41594); test: FLIPR Ca2+ flux assay in human mGluR5 CHONFAT/mGLAST cells; conditions: Fluo-4, FLIPR384, normalized to glutamate (10 μM) control maximum; EC50 values only in figure
T1 construct: expressed in transfected cells
Protocol: Agonists were added after 10 seconds of baseline determination. Data were normalized to a glutamate (10 μM) control maximum. Concentration-response curves were generated from mean data of 5 experiments. Error bars are SEM.
CHO cells expressing mGluR5 receptors (mGluR5 CHO cells) were plated in clear-bottomed, poly-D-lysine coated 384-well plates (Becton-Dickinson 35-6663 Franklin Lakes USA) in glutamate/glutamine-free medium using a Multidrop 384 cell dispenser (Thermo Labsystems, Franklin USA). The plated cells were grown overnight at 37° C. in the presence of 6% CO2. The following day, the cells were washed with 3×100 μl assay buffer (Hanks Balanced Salt Solution (Gibco 14025) containing 20 mM HEPES (Gibco 15630), 2.5 mM probenicid (Sigma P-8761), and 0.1% bovine serum albumin (Sigma) using an Embla cell washer (Skatron, Lier Norway). The cells were incubated with 1 μM Fluo-4AM (Molecular Probes) for 1 h at 37° C. and 6% CO2. The extracellular dye was removed by washing as described above. Ca^2+ flux was measured using FLIPR384, fluorometric imaging plate reader (Molecular Devices, Sunnyvale USA). For potency determination, the cells were pre-incubated with various concentrations of compound for 5 min and then stimulated for 3 min with either an EC20 or EC50 concentration of agonist (i.e. glutamate) for potentiation measurements or antagonist measurements, respectively.

[3] = target: T1, mGluR5; test: β-lactamase reporter gene assay in mGluR5CHONFAT cells without mGLAST co-expression; conditions: 1 μM quisqualate
Excerpt: as §1

[4] = target: T1, mGluR5; test: β-lactamase reporter gene assay in mGluR5CHONFAT co-expressing mGLAST
Excerpt: Aurora transcription based reporter cell lines were used to develop reporter gene assays for the mGluRs. The cell line, CHONFAT-β-lactamase, reports signaling through Gq-coupled receptors via an increase in intracellular calcium. The β-lactamase gene is under the transcriptional control of the nuclear factor of activated T-cells (N-FAT) promoter (reporting increased intracellular calcium). A second cell line Gqi5CHONFAT was utilized for Gi coupled mGluRs. This cell line contains a promiscuous G-protein that promotes coupling to a Gq signal transduction cascade. […] The production of β-lactamase resulting from the downstream signaling events of receptor activation is detected by loading cells with a fluorescent dye, CCF2-AM, a substrate cleavable by the β-lactamase enzyme. In its cleaved state, the substrate will fluoresce blue (EM460) when stimulated with UV light (395 nm). Noncleaved, the intact dye fluoresces green (EM530) (Science 1998, 279:84-88). The ratio of blue to green cells (Em460/530) is determined as a measure of signal transduction, with cells that have transduced a signal being blue and those that have not green.
Cells were plated at 80,000 cells per well in poly-D-lysine coated black clear bottom plates (Becton Dickinson) and grown in glutamate/glutamine free media (DMEM, -glutamine, 10% dialyzed fetal calf serum, 100 units/ml penicillin/streptomycin, 0.1 mM non-essential amino acids, 1 mM sodium pyruvate, 25 mM HEPES, 0.25 mg/mL zeocin, 10 μg/ml puromycin (Clontech 8052-2) and 1 mg/mL G418 for cell lines co-expressing mGluRs and mGLAST. All media was from GIBCO unless specified. Cells were grown overnight at 5% CO2, 37° C. The next day, media was aspirated and the cells were washed twice with serum-free DMEM and replaced with 100 μL of assay media (DMEM, glutamine free), 0.1% BSA, 25 mM HEPES. […] Plates were read 45-60 minutes later on a fluorescence plate reader (excitation 405±10 nm, emission 460±20 nm for blue; 530±15 nm. Wells containing dye and no cells were used to subtract background values.

T1 sequence (P41594 21-1212): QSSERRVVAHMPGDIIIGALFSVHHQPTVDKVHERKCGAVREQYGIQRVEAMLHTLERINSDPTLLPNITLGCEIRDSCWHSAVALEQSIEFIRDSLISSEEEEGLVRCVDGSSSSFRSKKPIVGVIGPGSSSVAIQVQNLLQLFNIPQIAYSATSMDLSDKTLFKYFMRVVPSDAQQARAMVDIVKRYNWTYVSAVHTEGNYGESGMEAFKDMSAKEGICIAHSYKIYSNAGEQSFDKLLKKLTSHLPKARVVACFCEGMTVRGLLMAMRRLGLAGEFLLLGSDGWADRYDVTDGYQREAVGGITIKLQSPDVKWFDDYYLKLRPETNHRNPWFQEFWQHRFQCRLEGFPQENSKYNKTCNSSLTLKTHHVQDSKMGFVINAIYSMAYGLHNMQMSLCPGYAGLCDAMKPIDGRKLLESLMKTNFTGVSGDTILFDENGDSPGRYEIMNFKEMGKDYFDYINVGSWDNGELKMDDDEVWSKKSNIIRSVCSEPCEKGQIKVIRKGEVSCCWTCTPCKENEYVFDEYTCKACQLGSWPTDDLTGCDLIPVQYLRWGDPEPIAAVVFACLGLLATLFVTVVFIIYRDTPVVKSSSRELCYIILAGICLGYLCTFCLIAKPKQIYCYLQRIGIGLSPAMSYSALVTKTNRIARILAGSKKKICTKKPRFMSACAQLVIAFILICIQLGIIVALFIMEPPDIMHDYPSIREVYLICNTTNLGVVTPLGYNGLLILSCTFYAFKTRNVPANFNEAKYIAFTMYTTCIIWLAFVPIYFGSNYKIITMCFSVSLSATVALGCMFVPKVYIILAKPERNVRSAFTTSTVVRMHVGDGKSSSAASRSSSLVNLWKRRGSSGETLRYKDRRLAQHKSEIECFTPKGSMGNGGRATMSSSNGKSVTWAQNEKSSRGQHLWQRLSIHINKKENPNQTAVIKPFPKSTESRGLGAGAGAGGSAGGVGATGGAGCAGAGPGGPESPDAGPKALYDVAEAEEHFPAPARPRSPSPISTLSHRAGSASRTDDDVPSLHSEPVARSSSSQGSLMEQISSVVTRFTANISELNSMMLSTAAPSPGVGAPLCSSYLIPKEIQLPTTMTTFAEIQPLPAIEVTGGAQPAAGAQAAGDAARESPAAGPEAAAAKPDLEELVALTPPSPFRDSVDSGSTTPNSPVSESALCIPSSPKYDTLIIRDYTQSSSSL

SMILES: C/C=C(/C)C(=O)O[C@H]1C(C)=C2[C@H]([C@@H]1OC(=O)CCCCCCC)[C@@](C)(OC(C)=O)C[C@H](OC(=O)CCC)[C@@]1(O)[C@H]2OC(=O)[C@@]1(C)O [thapsigargin]
- fluorescence ratio (EM460/530) [1]: 1.0

SMILES: NC(C(=O)O)c1cc(O)cc(O)c1 (centres unmarked) [3,5-DHPG]
- activation of Ca^2+ transients [2]: activate Ca^2+ transients

SMILES: N[C@@H](CCC(=O)O)C(=O)O [glutamate]
- activation of Ca^2+ transients [2]: activate Ca^2+ transients

SMILES: N[C@@H](Cn1oc(=O)[nH]c1=O)C(=O)O [quisqualate]
- activation of Ca^2+ transients [2]: activate Ca^2+ transients
- fluorescence ratio (EM460/530) [3]: 0.85
- fluorescence ratio (EM460/530) ([4]; 10 μM quisqualate, with mGLAST co-expression): 1.35
- EC50 ([4]; dose response in the absence of positive allosteric modulator): 44 nM
- EC50 ([4]; dose response in the presence of 10 μM positive allosteric modulator): 15 nM
